What was measured:
human GLP-1R [1] = biological target: human GLP-1R (Homo sapiens, UniProt P43220, G168S); assay: CHO GLP-1R Clone H6 cAMP HTRF agonist assay (Assay 1, high receptor density); assay type: cell-based; conditions: for EC50: CHO GLP-1R clone H6, cAMP HTRF, geometric mean; for Emax: CHO GLP-1R clone H6, arithmetic mean, relative to saturating GLP-1 (1 μM), read-out: Assay 1 Emax (%)
Procedure, shortened: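 Averaging differs by parameter: a geometric mean for EC50 and an arithmetic mean for Emax, each over the stated replicate number.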

human GLP-1R [2] = biological target: human GLP-1R (Homo sapiens, UniProt P43220, L260F); assay: CHO GLP-1R Clone C6 cAMP HTRF agonist assay (Assay 2, low receptor density); assay type: cell-based; conditions: for EC50: CHO GLP-1R clone C6, cAMP HTRF, geometric mean
Source text: In Table 5 and Table 6, assay data are presented to two (2) significant figures as the geometric mean (EC50s) and arithmetic mean (Emax) based on the number of replicates listed (Number). A blank cell means there was no data for that Example or the Emax was not calculated.

[3] = CHO GLP-1R clone C6, arithmetic mean, relative to saturating GLP-1 (1 μM)

human GLP-1R (Homo sapiens, UniProt P43220, L260F), sequence (P43220 24-463 L260F): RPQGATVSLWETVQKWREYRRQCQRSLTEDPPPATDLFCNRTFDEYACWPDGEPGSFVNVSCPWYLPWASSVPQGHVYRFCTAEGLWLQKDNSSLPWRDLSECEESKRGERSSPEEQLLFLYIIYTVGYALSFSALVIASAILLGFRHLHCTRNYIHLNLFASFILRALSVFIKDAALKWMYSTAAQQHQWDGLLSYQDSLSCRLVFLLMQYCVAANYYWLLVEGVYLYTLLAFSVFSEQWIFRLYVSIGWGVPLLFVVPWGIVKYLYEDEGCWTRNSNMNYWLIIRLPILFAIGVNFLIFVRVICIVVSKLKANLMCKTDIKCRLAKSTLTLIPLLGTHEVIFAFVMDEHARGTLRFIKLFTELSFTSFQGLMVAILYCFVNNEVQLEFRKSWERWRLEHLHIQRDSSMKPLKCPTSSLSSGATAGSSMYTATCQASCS
human GLP-1R (Homo sapiens, UniProt P43220, G168S), sequence (P43220 24-463 G168S): as the sequence (P43220 24-463 L260F) above, with G145S, F237L counted along it

Structure (SMILES) | EC50 (human GLP-1R [1]) | Emax (human GLP-1R [1]) | EC50 (human GLP-1R [2]) | Emax (human GLP-1R [2]; [3]) | Assay 2 Emax (%) (human GLP-1R [2]; [3])
CC(C)n1c(CN2CCC(c3cccc(OCc4ccc(Cl)cc4F)n3)CC2)nc2ccc(C(=O)O)cc21 [Compound 258B, 2-[(4-{6-[(4-chloro-2-fluorobenzyl)oxy]pyridin-2-yl}piperidin-1-yl)methyl]-1-(propan-2-yl)-1H-benzimidazole-6-carboxylic acid] | 0.0009 µM | 94% | 0.0097 µM | 100% | –
CC(C)(C)n1cnnc1Cn1c(CN2CCC(c3cccc(OCc4ccc(Cl)cc4F)n3)CC2)nc2ccc(C(=O)O)cc21 [Compound 259B, 1-[(4-tert-butyl-4H-1,2,4-triazol-3-yl)methyl]-2-[(4-{6-[(4-chloro-2-fluorobenzyl)oxy]pyridin-2-yl}piperidin-1-yl)methyl]-1H-benzimidazole-6-carboxylic acid] | 0.00095 µM | 95% | 0.013 µM | 91% | –
C[C@H]1CN(c2cccc(OCc3ccc(C#N)cc3)n2)CCN1Cc1nc2ccc(C(=O)O)cc2n1C[C@@H]1CCO1 [Compound 261B, 2-{[(2S)-4-{6-[(4-cyanobenzyl)oxy]pyridin-2-yl}-2-methylpiperazin-1-yl]methyl}-1-[(2S)-oxetan-2-ylmethyl]-1H-benzimidazole-6-carboxylic acid] | – | 100% | – | – | 120%
O=C(O)c1ccc2nc(CN3CCC(c4cccc(OCc5ccc(Cl)cc5F)n4)CC3)n(CCO)c2c1 [Compound 262B, 2-[(4-{6-[(4-chloro-2-fluorobenzyl)oxy]pyridin-2-yl}piperidin-1-yl)methyl]-1-(2-hydroxyethyl)-1H-benzimidazole-6-carboxylic acid] | 0.0016 µM | 83% | 0.028 µM | 88% | –
CCc1nc(Cn2c(CN3CCC(c4cccc(OCc5ccc(Cl)cc5F)n4)CC3)nc3ccc(C(=O)O)cc32)no1 [Compound 263B, 2-[(4-{6-[(4-chloro-2-fluorobenzyl)oxy]pyridin-2-yl}piperidin-1-yl)methyl]-1-[(5-ethyl-1,2,4-oxadiazol-3-yl)methyl]-1H-benzimidazole-6-carboxylic acid] | 0.033 µM | 80% | 0.67 µM | 110% | –
O=C(O)c1ccc2nc(CN3CCC(c4cccc(OCc5ccc(Cl)cc5F)n4)CC3)n(Cc3ccc(Cl)cn3)c2c1 [Compound 277B, 2-[(4-{6-[(4-chloro-2-fluorobenzyl)oxy]pyridin-2-yl}piperidin-1-yl)methyl]-1-[(5-chloropyridin-2-yl)methyl]-1H-benzimidazole-6-carboxylic acid] | 0.0081 µM | 64% | 0.23 µM | 77% | –
CCN1CCC(Cn2c(CN3CCC(c4cccc(OCc5ccc(Cl)cc5F)n4)CC3)nc3ccc(C(=O)O)cc32)C1 (stereo not shown) [Compound 278B, 2-[(4-{6-[(4-chloro-2-fluorobenzyl)oxy]pyridin-2-yl}piperidin-1-yl)methyl]-1-[(1-ethylpyrrolidin-3-yl)methyl]-1H-benzimidazole-6-carboxylic acid] | 0.0094 µM | 69% | 0.094 µM | 92% | –
CN1CCCC(Cn2c(CN3CCC(c4cccc(OCc5ccc(Cl)cc5F)n4)CC3)nc3ccc(C(=O)O)cc32)C1 (stereo not shown) [Compound 279B, 2-[(4-{6-[(4-chloro-2-fluorobenzyl)oxy]pyridin-2-yl}piperidin-1-yl)methyl]-1-[(1-methylpiperidin-3-yl)methyl]-1H-benzimidazole-6-carboxylic acid] | 0.011 µM | 71% | 0.41 µM | 75% | –
O=C(O)c1ccc2nc(CN3CCC(c4cccc(OCc5ccc(Cl)cc5F)n4)CC3)n(CCC3CCCCO3)c2c1 (stereo not shown) [Compound 280B, 2-[(4-{6-[(4-chloro-2-fluorobenzyl)oxy]pyridin-2-yl}piperidin-1-yl)methyl]-1-[2-(tetrahydro-2H-pyran-2-yl)ethyl]-1H-benzimidazole-6-carboxylic acid] | 0.011 µM | 65% | 0.38 µM | 96% | –
CC(C)c1cc(Cn2c(CN3CCC(c4cccc(OCc5ccc(Cl)cc5F)n4)CC3)nc3ccc(C(=O)O)cc32)on1 [Compound 281B, 2-[(4-{6-[(4-chloro-2-fluorobenzyl)oxy]pyridin-2-yl}piperidin-1-yl)methyl]-1-{[3-(propan-2-yl)-1,2-oxazol-5-yl]methyl}-1H-benzimidazole-6-carboxylic acid] | 0.014 µM | 80% | 0.27 µM | 92% | –
CN1CCC(CCn2c(CN3CCC(c4cccc(OCc5ccc(Cl)cc5F)n4)CC3)nc3ccc(C(=O)O)cc32)CC1 [Compound 282B, 2-[(4-{6-[(4-chloro-2-fluorobenzyl)oxy]pyridin-2-yl}piperidin-1-yl)methyl]-1-[2-(1-methylpiperidin-4-yl)ethyl]-1H-benzimidazole-6-carboxylic acid] | 0.015 µM | 83% | 0.23 µM | 110% | –
CN1CCC(Cn2c(CN3CCC(c4cccc(OCc5ccc(Cl)cc5F)n4)CC3)nc3ccc(C(=O)O)cc32)CC1 [Compound 283B, 2-[(4-{6-[(4-chloro-2-fluorobenzyl)oxy]pyridin-2-yl}piperidin-1-yl)methyl]-1-[(1-methylpiperidin-4-yl)methyl]-1H-benzimidazole-6-carboxylic acid] | 0.015 µM | 83% | 0.27 µM | 88% | –
CN1CCCC1CCn1c(CN2CCC(c3cccc(OCc4ccc(Cl)cc4F)n3)CC2)nc2ccc(C(=O)O)cc21 (stereo not shown) [Compound 284B, 2-[(4-{6-[(4-chloro-2-fluorobenzyl)oxy]pyridin-2-yl}piperidin-1-yl)methyl]-1-[2-(1-methylpyrrolidin-2-yl)ethyl]-1H-benzimidazole-6-carboxylic acid] | 0.018 µM | 82% | 0.27 µM | 83% | –
CN1CCCCC1Cn1c(CN2CCC(c3cccc(OCc4ccc(Cl)cc4F)n3)CC2)nc2ccc(C(=O)O)cc21 (stereo not shown) [Compound 285B, 2-[(4-{6-[(4-chloro-2-fluorobenzyl)oxy]pyridin-2-yl}piperidin-1-yl)methyl]-1-[(1-methylpiperidin-2-yl)methyl]-1H-benzimidazole-6-carboxylic acid] | 0.021 µM | 82% | 0.2 µM | 81% | –
CN1CCOC(CCn2c(CN3CCC(c4cccc(OCc5ccc(Cl)cc5F)n4)CC3)nc3ccc(C(=O)O)cc32)C1 (stereo not shown) [Compound 286B, 2-[(4-{6-[(4-chloro-2-fluorobenzyl)oxy]pyridin-2-yl}piperidin-1-yl)methyl]-1-[2-(4-methylmorpholin-2-yl)ethyl]-1H-benzimidazole-6-carboxylic acid] | 0.025 µM | 78% | 0.33 µM | 96% | –
COCCN1CCC(Cn2c(CN3CCC(c4cccc(OCc5ccc(Cl)cc5F)n4)CC3)nc3ccc(C(=O)O)cc32)CC1 [Compound 287B, 2-[(4-{6-[(4-chloro-2-fluorobenzyl)oxy]pyridin-2-yl}piperidin-1-yl)methyl]-1-{[1-(2-methoxyethyl)piperidin-4-yl]methyl}-1H-benzimidazole-6-carboxylic acid] | 0.028 µM | 80% | 0.45 µM | 89% | –
COCCN1CCCC(Cn2c(CN3CCC(c4cccc(OCc5ccc(Cl)cc5F)n4)CC3)nc3ccc(C(=O)O)cc32)C1 (stereo not shown) [Compound 288B, 2-[(4-{6-[(4-chloro-2-fluorobenzyl)oxy]pyridin-2-yl}piperidin-1-yl)methyl]-1-{[1-(2-methoxyethyl)piperidin-3-yl]methyl}-1H-benzimidazole-6-carboxylic acid] | 0.03 µM | 77% | 0.36 µM | 89% | –
CC1(Cn2c(CN3CCC(c4cccc(OCc5ccc(Cl)cc5F)n4)CC3)nc3ccc(C(=O)O)cc32)CCOC1 (stereo not shown) [Compound 289B, 2-[(4-{6-[(4-chloro-2-fluorobenzyl)oxy]pyridin-2-yl}piperidin-1-yl)methyl]-1-[(3-methyltetrahydrofuran-3-yl)methyl]-1H-benzimidazole-6-carboxylic acid] | 0.036 µM | 73% | 1.1 µM | 79% | –
O=C(O)c1ccc2nc(CN3CCC(c4cccc(OCc5ccc(Cl)cc5F)n4)CC3)n(Cc3cn[nH]c3)c2c1 [Compound 290B, 2-[(4-{6-[(4-chloro-2-fluorobenzyl)oxy]pyridin-2-yl}piperidin-1-yl)methyl]-1-(1H-pyrazol-4-ylmethyl)-1H-benzimidazole-6-carboxylic acid] | 0.044 µM | 72% | 0.49 µM | 98% | –
O=C(O)c1ccc2nc(CN3CCC(c4cccc(OCc5ccc(Cl)cc5F)n4)CC3)n(CC3CCC3)c2c1 [Compound 291B, 2-[(4-{6-[(4-chloro-2-fluorobenzyl)oxy]pyridin-2-yl}piperidin-1-yl)methyl]-1-(cyclobutylmethyl)-1H-benzimidazole-6-carboxylic acid] | 0.054 µM | 77% | 1.2 µM | 82% | –
O=C(O)c1ccc2nc(CN3CCC(c4cccc(OCc5ccc(Cl)cc5F)n4)CC3)n(CCn3cncn3)c2c1 [Compound 292B, 2-[(4-{6-[(4-chloro-2-fluorobenzyl)oxy]pyridin-2-yl}piperidin-1-yl)methyl]-1-[2-(1H-1,2,4-triazol-1-yl)ethyl]-1H-benzimidazole-6-carboxylic acid] | 0.055 µM | 71% | 1.7 µM | 99% | –

— patent US20250235460A1, “COMBINATION THERAPY USING GLUCOSE-DEPENDENT INSULINOTROPIC POLYPEPTIDE RECEPTOR ANTAGONIST COMPOUNDS AND GLP-1 RECEPTOR AGONIST COMPOUNDS” (Pfizer Inc., priority 2024, published 2025)
